Results reported in PMC9823088, “The oral selective estrogen receptor degrader GDC-0810 (ARN-810) in postmenopausal women with hormone receptor-positive HER2-negative (HR + /HER2 −) advanced/metastatic breast cancer” (Breast Cancer Research and Treatment, 2022).

Experiment: Safety: adverse events (NCI-CTCAE v4.0), DLT, MTD, RP2D
Type: in vivo
Description: AEs were assessed using the National Cancer Institute-Common Terminology Criteria for Adverse Events (NCI-CTCAE v4.0). […] The protocol-defined GDC-0810-specific AEs of special interest (AESI) which were non-serious adverse events that required expedited reporting to the sponsor, included DLTs occurring during the DLT assessment window, grade ≥ 2 vomiting/diarrhea, grade ≥ 3 nausea, grade ≥ 2 thromboembolic events, grade ≥ 2 vaginal or uterine hemorrhage, and grade ≥ 3 elevation of ALT or AST.
Analyses of safety, pharmacokinetics, anti-tumor activity, and data from the FES-PET imaging correlative studies were planned. Confirmatory inferential analyses and imputation for missing data were not planned due to the exploratory nature of this study. Descriptive statistics were used to summarize patient data. The number of patients to be enrolled was dependent upon the observed safety and pharmacokinetic profile during dose escalations. The safety- and efficacy-evaluable population included patients who received at least one dose of the study drug. Safety was assessed through summaries of DLTs, AEs, changes in select laboratory test results, vital signs, ECGs, and changes in endometrial thickness. Objective response (with confirmation) and clinical benefit rates (CBR) were derived per RECIST v1.1 and summarized by dose level and cohort. […]
polyps, endometrial cancer, endometrial hyperplasia, and other significant disorders); any […]
disease or chronic diarrhea, short bowel syndrome, or upper gastrointestinal surgery; known human immunodeficiency virus (HIV) infection; known clinically significant history of liver disease; major surgery within 4 weeks prior to enrollment; or radiation therapy within 2 weeks […]
There were phase-specific exclusion criteria as well. In phase Ib, cohort C1 excluded patients with a history of venous thromboembolic event requiring therapeutic anticoagulation or vaginal bleeding within 2 months prior to enrollment. In phase IIa, cohorts A1 and A2 excluded patients with >1 chemotherapy in the advanced/metastatic disease setting. In phase IIa, cohort B1 excluded patients with >1 prior AI in the advanced/metastatic disease setting or prior […]
In phase IIa, cohort B2 excluded patients with >1 prior AI or >1 prior chemotherapy in the advanced/metastatic disease setting.
Patients in phase Ia in dose escalation received oral doses of GDC-0810 during 28-day cycles given once daily (QD) or twice-daily (BID), with fasting and without fasting, and with a single dose given on day −7 leading into cycle 1. The starting dose in the first cohort was 100 mg per day based on preclinical studies. Dose escalation to 200 mg and by 200 mg increments in successive cohorts occurred in the absence of dose-limiting toxicities (DLTs), or conditionally in the presence of DLTs. A DLT was defined as any adverse event (AE) occurring during the DLT window deemed by the investigator or sponsor to be related to the study drug unless they were clearly related to disease progression or other cause; DLT incidences were evaluated from day […]
patients in a dose cohort experienced a DLT, 3 additional patients were assigned to that dose; dose escalation to the next level proceeded if DLTs were experienced by ≤1 patient out of 6. If ≥2 patients experienced DLTs at a given dose, a lower dose was to be declared the maximum […]
Phase Ib was a dose-escalation study of GDC-0810 starting at 400 mg QD, as […]
Phase IIa explored the recommended phase 2 dose (RP2D) from phase Ia. All patients received GDC-0810 600 mg under non-fasting conditions. Cohorts A1 and A2 enrolled patients with tumors harboring ESR1 mutations with no prior fulvestrant use in cohort A1 while prior fulvestrant use was allowed in cohort A2. Cohorts B1 and B2 enrolled patients whose disease had progressed and who may have had one or no AI therapy; there was no prior fulvestrant use in cohort B1 while prior fulvestrant use was allowed in cohort B2.
Patients in all three study phases continued treatment until unacceptable toxicity, disease

[1] = phase IIa B2, 600 mg QD, n = 19
[2] = phase Ia cohorts 1–9, 100–800-mg BID, 300–400-mg QD, n = 41
[3] = phase Ib C1, 400 mg QD + palbociclib, n = 4
[4] = phase Ib D1, ≤ 600 mg QD + LHRH agonist, n = 6
[5] = phase Ib and IIa (n=111), grade 2, cohort B1
[6] = phase Ib and IIa (n=111), grade 2, cohort D1
[7] = phase Ib and IIa (n=111), grade 3, cohort A1
[8] = phase Ib and IIa (n=111), grade 3, cohort B1
[9] = phase Ib and IIa (n=111), grade 5, cohort B1
[10] = phase Ib combination treatments

In the case of `CC/C(=C(/c1ccc(/C=C/C(=O)O)cc1)c1ccc2[nH]ncc2c1)c1ccc(F)cc1Cl` [GDC-0810], the “Constipation, Grades 3–5” value [1] is reported as 0 n (%), the “Constipation, all grades” value [1] is reported as 4 (21) n (%) and the “Cough, Grades 3–5” value [1] is reported as 0 n (%). The “Cough, all grades” value [1] was 4 (21) n (%), the “Decreased appetite, Grades 3–5” value [1] was 0 n (%) and the “Decreased appetite, all grades” value [1] was 2 (11) n (%). The “Diarrhea, Grades 3–5” value [1] was 0 n (%), the “Diarrhea, all grades” value [1] was 11 (58) n (%) and the “Dyspepsia, Grades 3–5” value [1] was 0 n (%). For the same molecule, the “Dyspepsia, all grades” value [1] was 2 (11) n (%), the “Fatigue, Grades 3–5” value [1] was 0 n (%) and the “Fatigue, all grades” value [1] was 7 (37) n (%). For the same molecule, the “Flatulence, Grades 3–5” value [1] was 0 n (%), the “Flatulence, all grades” value [1] was 0 n (%) and the “Nausea, Grades 3–5” value [1] was 0 n (%). The “Nausea, all grades” value [1] was 9 (47) n (%), the “Vomiting, Grades 3–5” value [1] was 0 n (%) and the “Vomiting, all grades” value [1] was 2 (11) n (%). For the same molecule, the “AEs leading to dose interruption” value (phase IIa expansion cohorts) was 32 (32%) n (%), the “AEs leading to dose reduction” value (phase IIa expansion cohorts) was 4 (4%) n (%) and the “AEs leading to study drug withdrawal” value (phase IIa expansion cohorts) was 3 (3%) n (%). For the same molecule, the “MTD (maximum tolerated dose)” value (phase Ia) was “not reached”, the “time to onset for any grade diarrhea, range” value (phase Ia) was 1 to 176 days and the “AST increased, Grades 3–5” value [2] was 2 (5) n (%). For the same molecule, the “AST increased, all grades” value [2] was 17 (42) n (%), the “Abdominal pain, Grades 3–5” value [2] was 1 (2) n (%) and the “Abdominal pain, all grades” value [2] was 12 (29) n (%). For the same molecule, the “Anemia, Grades 3–5” value [2] was 1 (2) n (%), the “Anemia, all grades” value [2] was 18 (44) n (%) and the “Arthralgia, Grades 3–5” value [2] was 0 n (%). For the same molecule, the “Arthralgia, all grades” value [2] was 12 (29) n (%), the “Constipation, Grades 3–5” value [2] was 0 n (%) and the “Constipation, all grades” value [2] was 17 (42) n (%). For the same molecule, the “Cough, Grades 3–5” value [2] was 0 n (%), the “Cough, all grades” value [2] was 13 (32) n (%) and the “Decreased appetite, Grades 3–5” value [2] was 0 n (%). For the same molecule, the “Decreased appetite, all grades” value [2] was 13 (32) n (%), the “Diarrhea, Grades 3–5” value [2] was 0 n (%) and the “Diarrhea, all grades” value [2] was 32 (78) n (%). For the same molecule, the “Dyspepsia, Grades 3–5” value [2] was 0 n (%), the “Dyspepsia, all grades” value [2] was 11 (27) n (%) and the “Fatigue, Grades 3–5” value [2] was 3 (7) n (%). For the same molecule, the “Fatigue, all grades” value [2] was 28 (68) n (%), the “Flatulence, Grades 3–5” value [2] was 0 n (%) and the “Flatulence, all grades” value [2] was 11 (27) n (%). For the same molecule, the “Nausea, Grades 3–5” value [2] was 1 (2) n (%), the “Nausea, all grades” value [2] was 28 (68) n (%) and the “Vomiting, Grades 3–5” value [2] was 1 (2) n (%). For the same molecule, the “Vomiting, all grades” value [2] was 16 (39) n (%), the “AEs leading to dose interruption” value (phase Ia dose escalation) was 18 (44%) n (%) and the “AEs leading to dose reduction” value (phase Ia dose escalation) was 5 (12%) n (%). For the same molecule, the “patients with ≥ 1 AE considered related to GDC-0810” value (phase Ia dose escalation) was 40 (98%) n (%), the “mean time to onset for any grade diarrhea” value (phase Ia dose-escalation cohorts) was 29 days and the “SAEs considered related to the study drug” value (phase Ia, grade 4 pulmonary embolism) was “one of the 20”. For the same molecule, the “patients with grade ≥3 AEs related to GDC-0810” value (phase Ia, grade 4 pulmonary embolism and two grade 3 diarrhea) was 3 (7%) n (%), the deaths (phase Ib) was “no deaths” and the “AST increased, Grades 3–5” value [3] was 0 n (%). The “AST increased, all grades” value [3] was 1 (25) n (%), the “Abdominal pain, Grades 3–5” value [3] was 0 n (%) and the “Abdominal pain, all grades” value [3] was 0 n (%). For the same molecule, the “Anemia, Grades 3–5” value [3] was 0 n (%), the “Anemia, all grades” value [3] was 2 (50) n (%) and the “Arthralgia, Grades 3–5” value [3] was 0 n (%). The “Arthralgia, all grades” value [3] was 1 (25) n (%), the “Constipation, Grades 3–5” value [3] was 0 n (%) and the “Constipation, all grades” value [3] was 0 n (%). For the same molecule, the “Cough, Grades 3–5” value [3] was 0 n (%), the “Cough, all grades” value [3] was 1 (25) n (%) and the “Decreased appetite, Grades 3–5” value [3] was 0 n (%). For the same molecule, the “Decreased appetite, all grades” value [3] was 1 (25) n (%), the “Diarrhea, Grades 3–5” value [3] was 0 n (%) and the “Diarrhea, all grades” value [3] was 2 (50) n (%). The “Dyspepsia, Grades 3–5” value [3] was 0 n (%), the “Dyspepsia, all grades” value [3] was 0 n (%) and the “Fatigue, Grades 3–5” value [3] was 1 (25) n (%). For the same molecule, the “Fatigue, all grades” value [3] was 2 (50) n (%), the “Flatulence, Grades 3–5” value [3] was 0 n (%) and the “Flatulence, all grades” value [3] was 0 n (%). For the same molecule, the “Nausea, Grades 3–5” value [3] was 0 n (%), the “Nausea, all grades” value [3] was 3 (75) n (%) and the “Vomiting, Grades 3–5” value [3] was 0 n (%). The “Vomiting, all grades” value [3] was 0 n (%), the “AST increased, Grades 3–5” value [4] was 0 n (%) and the “AST increased, all grades” value [4] was 0 n (%). For the same molecule, the “Abdominal pain, Grades 3–5” value [4] was 0 n (%), the “Abdominal pain, all grades” value [4] was 2 (33) n (%) and the “Anemia, Grades 3–5” value [4] was 0 n (%). The “Anemia, all grades” value [4] was 0 n (%), the “Arthralgia, Grades 3–5” value [4] was 0 n (%) and the “Arthralgia, all grades” value [4] was 1 (17) n (%). The “Constipation, Grades 3–5” value [4] was 0 n (%), the “Constipation, all grades” value [4] was 3 (50) n (%) and the “Cough, Grades 3–5” value [4] was 0 n (%). For the same molecule, the “Cough, all grades” value [4] was 1 (17) n (%), the “Decreased appetite, Grades 3–5” value [4] was 0 n (%) and the “Decreased appetite, all grades” value [4] was 4 (67) n (%). The “Diarrhea, Grades 3–5” value [4] was 1 (17) n (%), the “Diarrhea, all grades” value [4] was 6 (100) n (%) and the “Dyspepsia, Grades 3–5” value [4] was 0 n (%). For the same molecule, the “Dyspepsia, all grades” value [4] was 3 (50) n (%), the “Fatigue, Grades 3–5” value [4] was 0 n (%) and the “Fatigue, all grades” value [4] was 3 (50) n (%). For the same molecule, the “Flatulence, Grades 3–5” value [4] was 0 n (%), the “Flatulence, all grades” value [4] was 1 (17) n (%) and the “Nausea, Grades 3–5” value [4] was 0 n (%). The “Nausea, all grades” value [4] was 4 (67) n (%), the “Vomiting, Grades 3–5” value [4] was 0 n (%) and the “Vomiting, all grades” value [4] was 3 (50) n (%). For the same molecule, the “SAE Urinary tract infection” value (phase Ib and IIa (n=111), grade 1, cohort A1) was 1 n, the “SAE Hepatic hemorrhage” value (phase Ib and IIa (n=111), grade 2, cohort A1) was 1 n and the “SAE Deep vein thrombosis” value [5] was 1 n. For the same molecule, the “SAE Pneumonia” value [5] was 1 n, the “SAE Pleural effusion” value (phase Ib and IIa (n=111), grade 2, cohort C1) was 1 n and the “SAE Abdominal pain” value [6] was 1 n. The “SAE Appendicitis perforated” value [6] was 1 n, the “SAE Pain in extremity” value [6] was 1 n and the “SAE Ascites” value [7] was 1 n. The “SAE Hypertension” value [7] was 1 n, the “SAE Vomiting” value (phase Ib and IIa (n=111), grade 3, cohort A1 (both)) was 2 n and the “SAE Cardiac failure” value [8] was 1 n. The “SAE Diarrhea” value [8] was 1 n, the “SAE Dyspnea” value [8] was 1 n and the “SAE Endometrial hyperplasia” value [8] was 1 n. The “SAE Headache” value [8] was 1 n, the “SAE Hip fracture” value [8] was 1 n and the “SAE Hydronephrosis” value [8] was 1 n. For the same molecule, the “SAE Seizure” value [8] was 1 n, the “SAE Syncope” value [8] was 1 n and the “SAE Tumor pain” value [8] was 1 n. For the same molecule, the “SAE Atrial fibrillation” value (phase Ib and IIa (n=111), grade 3, cohort C1) was 1 n, the “SAE Pneumonia” value (phase Ib and IIa (n=111), grade 3, cohorts A2, B1) was 2 n and the “SAE Pulmonary embolism” value (phase Ib and IIa (n=111), grade 3, cohorts B1, D1) was 2 n. The “SAE Hyponatremia” value (phase Ib and IIa (n=111), grade 4, cohort B1) was 1 n, the “SAE Sepsis” value (phase Ib and IIa (n=111), grade 4, cohorts B1, B2) was 2 n and the “SAE Acute kidney injury” value [9] was 1 n. The “SAE Breast cancer” value [9] was 2 n, the “AEs leading to dose interruption” value [10] was 5 (50%) n (%) and the “AEs leading to dose reduction” value [10] was “none”. For the same molecule, the “AEs leading to study drug withdrawal” value [10] was “none”, the “vomiting, most common AEs” value (phases Ib/IIa) was 31,28% and the “RP2D (recommended phase 2 dose)” value (taken with food / non-fasted) was 600 mg QD.
